From the supplement of paper PMC4932681

How the values were obtained:
T-47D Tam2 [1] = test: relative IC50 (midpoint of fitted logistic curve, plateau may be below 50% inhibition; CellTiter-Glo viability); higher = less potent; conditions: 4-OH-tamoxifen in medium 1 µM; 72 h
Method in brief: (§1)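 Breast cancer cell lines and their resistant derivatives were seeded into 384-well plates containing library drugs at five concentrations across a 10 000-fold range, with resistant lines kept in medium with 1 μM of the selecting drug. After 72 h at 37 °C, CellTiter-Glo viability was read on a PHERAstar and normalised to vehicle-only and positive controls. Logistic dose–response fits in the Breeze pipeline gave drug sensitivity score, relative IC50 (curve midpoint) and top-dose inhibition.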

BT-474 Tam2 [2] = test: as above; conditions: 4-OH-tamoxifen in medium 1 µM; 72 h
Method in brief: as §1

ZR-75-1 Tam1 [3] = test: as above; conditions: 4-OH-tamoxifen in medium 1 µM; 72 h
Method in brief: as §1

ZR-75-1 Tam2 [4] = test: as above; conditions: 4-OH-tamoxifen in medium 1 µM; 72 h
Method in brief: as §1

T-47D [5] = test: as above; conditions: 72 h
Method in brief: as §1

ZR-75-1 [6] = test: as above; conditions: 72 h
Method in brief: as §1

T-47D Tam1 [7] = test: as above; conditions: 4-OH-tamoxifen in medium 1 µM; 72 h
Method in brief: as §1

BT-474 Tam1 [8] = test: as above; conditions: 4-OH-tamoxifen in medium 1 µM; 72 h
Method in brief: as §1

MCF-7 [9] = test: as above; conditions: 72 h
Method in brief: as §1

BT-474 [10] = test: as above; conditions: 72 h
Method in brief: as §1

T-47D Tam2 [11] = test: drug sensitivity score (DSS) (DSS (dimensionless)); higher = more sensitive; extreme values may be limits of the assay; conditions: 4-OH-tamoxifen in medium 1 µM; 72 h
Method: (§2)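 FIMM FO2B library drugs were tested at 5 concentrations (10,000-fold range) for 72 h, with CellTiter-Glo viability normalised to DMSO and benzethonium chloride controls. The Drug Sensitivity Score (DSS) is computed from the fitted logistic dose-response curve (area-based; 0 = inactive). Resistant lines and the 'in 1µM tamoxifen' arms were tested in 1 µM 4-OH-tamoxifen.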

BT-474 Tam2 [12] = test: as above; conditions: 4-OH-tamoxifen in medium 1 µM; 72 h
Method: as §2

ZR-75-1 Tam1 [13] = test: as above; conditions: 4-OH-tamoxifen in medium 1 µM; 72 h
Method: as §2

ZR-75-1 Tam2 [14] = test: as above; conditions: 4-OH-tamoxifen in medium 1 µM; 72 h
Method: as §2

T-47D [15] = test: as above; conditions: 72 h
Method: as §2

ZR-75-1 [16] = test: as above; conditions: 72 h
Method: as §2

T-47D Tam1 [17] = test: as above; conditions: 4-OH-tamoxifen in medium 1 µM; 72 h
Method: as §2

BT-474 Tam1 [18] = test: as above; conditions: 4-OH-tamoxifen in medium 1 µM; 72 h
Method: as §2

MCF-7 Tam1 = test: as above; conditions: 4-OH-tamoxifen in medium 1 µM; 72 h
Method: as §2

MCF-7 [19] = test: as above; conditions: 72 h
Method: as §2

BT-474 [20] = test: as above; conditions: 72 h
Method: as §2

Compound	relative IC50 (T-47D Tam2 [1]) [µM]	relative IC50 (BT-474 Tam2 [2]) [µM]	relative IC50 (ZR-75-1 Tam1 [3]) [µM]	relative IC50 (ZR-75-1 Tam2 [4]) [µM]	relative IC50 (T-47D [5]; 4-OH-tamoxifen in medium 0 µM) [µM]	relative IC50 (T-47D [5]; 4-OH-tamoxifen in medium 1 µM) [µM]	relative IC50 (ZR-75-1 [6]; 4-OH-tamoxifen in medium 0 µM) [µM]	relative IC50 (ZR-75-1 [6]; 4-OH-tamoxifen in medium 1 µM) [µM]	relative IC50 (T-47D Tam1 [7]) [µM]	relative IC50 (BT-474 Tam1 [8]) [µM]	relative IC50 (MCF-7 [9]; 4-OH-tamoxifen in medium 0 µM) [µM]	relative IC50 (MCF-7 [9]; 4-OH-tamoxifen in medium 1 µM) [µM]	relative IC50 (BT-474 [10]; 4-OH-tamoxifen in medium 0 µM) [µM]	relative IC50 (BT-474 [10]; 4-OH-tamoxifen in medium 1 µM) [µM]	drug sensitivity score (T-47D Tam2 [11])	drug sensitivity score (BT-474 Tam2 [12])	drug sensitivity score (ZR-75-1 Tam1 [13])	drug sensitivity score (ZR-75-1 Tam2 [14])	drug sensitivity score (T-47D [15]; 4-OH-tamoxifen in medium 0 µM)	drug sensitivity score (T-47D [15]; 4-OH-tamoxifen in medium 1 µM)	drug sensitivity score (ZR-75-1 [16]; 4-OH-tamoxifen in medium 0 µM)	drug sensitivity score (ZR-75-1 [16]; 4-OH-tamoxifen in medium 1 µM)	drug sensitivity score (T-47D Tam1 [17])	drug sensitivity score (BT-474 Tam1 [18])	drug sensitivity score (MCF-7 Tam1)	drug sensitivity score (MCF-7 [19]; 4-OH-tamoxifen in medium 0 µM)	drug sensitivity score (MCF-7 [19]; 4-OH-tamoxifen in medium 1 µM)	drug sensitivity score (BT-474 [20]; 4-OH-tamoxifen in medium 0 µM)	drug sensitivity score (BT-474 [20]; 4-OH-tamoxifen in medium 1 µM)
O=C(/C=C/c1cccc(S(=O)(=O)Nc2ccccc2)c1)NO [Belinostat  (PXD101)]	1.18	0.87	0.964	0.833	0.795	0.857	0.791	1.2	1.26	0.958	0.363	0.554	0.547	0.354	7.43	9.18	4.54	6.02	12	11.9	4.2	3.84	9.66	10.5	2.18	14.7	12.7	12.8	16.8
Cc1[nH]c2ccccc2c1CCNCc1ccc(/C=C/C(=O)NO)cc1 [Panobinostat]	0.0876	0.022	0.0647	0.0496	0.0447	0.0408	0.0327	0.0817	0.0475	0.0171	0.0287	0.0352	0.0197	0.0106	8.64	17.2	5.02	7.47	15.5	15.9	8.15	4.19	12.7	19.8	1.73	16.3	15.2	17.8	23.3
C=CC(=O)Nc1cc2c(Nc3ccc(F)c(Cl)c3)ncnc2cc1OCCCN1CCOCC1 [Canertinib]	1.58	0.0186	1.74	2.78	1.23		2.09	1.51	0.513	0.0117	1.29	1.64	0.0313	0.0124	5.77	31.6	2.99	2.58	3.92	0.761	3	3.11	6.06	34.2	1.4	6.68	6.46	24.8	33.6
Cn1cc(CNCC2CCN(c3ncc(C(=O)NO)cn3)CC2)c2ccccc21	0.0913	0.0149	0.00619	0.0203	0.0435	0.0132	0.0178	0.03	0.0439	0.0145	0.0254	0.0347	0.0216	0.00856	8.78	20.9	10	9.02	15.4	21.5	9.45	5.44	13.5	21.3	1.39	16.4	15.2	17.3	24.5
